Key:
[1] = target: T1, 3-hydroxyanthranilate 3,4-dioxygenase (Rattus norvegicus) (UniProt P46953); experiment: Inhibition of 3-HAO in Sprague-Dawley rat brain homogenates using [1-14C]-3-HANA as substrate assessed as [14C]-QUIN production at 10 uM after 1 hr by liquid scintillation spectrometric analysis relative to control; type: tissue-based
T1 sequence (whole entry): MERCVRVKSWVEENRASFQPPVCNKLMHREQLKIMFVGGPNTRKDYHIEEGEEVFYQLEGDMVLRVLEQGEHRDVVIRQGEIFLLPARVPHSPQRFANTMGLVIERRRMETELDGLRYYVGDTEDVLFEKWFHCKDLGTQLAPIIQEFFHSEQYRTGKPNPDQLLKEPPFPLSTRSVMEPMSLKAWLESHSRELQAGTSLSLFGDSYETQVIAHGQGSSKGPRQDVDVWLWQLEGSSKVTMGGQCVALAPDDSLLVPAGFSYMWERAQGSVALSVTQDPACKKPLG

[2] = target: T2, 3-hydroxyanthranilate 3,4-dioxygenase (Homo sapiens) (UniProt P46952); experiment: Inhibition of 3-HAO in human brain homogenates using [1-14C]-3-HANA as substrate assessed as [14C]-QUIN production at 1 mM after 1 hr by liquid scintillation spectrometric analysis relative to control; type: tissue-based
T2 sequence (whole entry): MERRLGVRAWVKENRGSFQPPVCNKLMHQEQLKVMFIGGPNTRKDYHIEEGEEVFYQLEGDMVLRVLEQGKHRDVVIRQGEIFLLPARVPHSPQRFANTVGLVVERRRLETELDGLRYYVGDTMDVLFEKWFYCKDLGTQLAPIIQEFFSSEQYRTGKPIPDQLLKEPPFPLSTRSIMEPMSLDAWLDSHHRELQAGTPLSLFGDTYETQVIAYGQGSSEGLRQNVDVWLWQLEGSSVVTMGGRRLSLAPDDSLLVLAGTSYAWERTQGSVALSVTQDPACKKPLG

[3] = target: T1, 3-hydroxyanthranilate 3,4-dioxygenase (Rattus norvegicus); experiment: Inhibition of 3-HAO in Sprague-Dawley rat brain homogenates using [1-14C]-3-HANA as substrate assessed as [14C]-QUIN production at 100 uM after 1 hr by liquid scintillation spectrometric analysis relative to control; type: tissue-based
[4] = target: T2, 3-hydroxyanthranilate 3,4-dioxygenase (Homo sapiens); experiment: Inhibition of 3-HAO in human brain homogenates using [1-14C]-3-HANA as substrate assessed as [14C]-QUIN production at 10 uM after 1 hr by liquid scintillation spectrometric analysis relative to control; type: tissue-based
[5] = target: T1, 3-hydroxyanthranilate 3,4-dioxygenase (Rattus norvegicus); experiment: Inhibition of 3-HAO in Sprague-Dawley rat brain homogenates using [1-14C]-3-HANA as substrate assessed as [14C]-QUIN production at 1 mM after 1 hr by liquid scintillation spectrometric analysis relative to control; type: tissue-based
[6] = target: T2, 3-hydroxyanthranilate 3,4-dioxygenase (Homo sapiens); experiment: Inhibition of 3-HAO in human brain homogenates using [1-14C]-3-HANA as substrate assessed as [14C]-QUIN production at 100 uM after 1 hr by liquid scintillation spectrometric analysis relative to control; type: tissue-based
[7] = Drug degradation in PBS buffer assessed as parent compound level at 100 uM after 24 hrs by HPLC/UV-vis spectroscopic analysis; type: physicochemical; settings: read-out: Stability
[8] = Drug degradation in PBS buffer assessed as parent compound level at 10 uM after 24 hrs by HPLC/UV-vis spectroscopic analysis; type: physicochemical; settings: read-out: Stability
[9] = target: T3, 3-hydroxyanthranilate 3,4-dioxygenase (Homo sapiens, UniProt P46952); experiment: Inhibition of 3-HAO in human brain homogenates using [1-14C]-3-HANA as substrate assessed as [14C]-QUIN production after 1 hr by liquid scintillation spectrometric analysis; type: tissue-based
T3 sequence (P46952 whole entry): T2 sequence (whole entry)

Rattus norvegicus = experiment: In vivo inhibition of 3-HAO in excitotoxically lesioned Sprague-Dawley rat striatum assessed as de novo formation of [3H]-QUIN administered as intrastriatally measured after 2 hrs (reference value: 3.4 +/- 0.5%); type: functional
[10] = target: T4, 3-hydroxyanthranilate 3,4-dioxygenase (Rattus norvegicus, UniProt P46953); experiment: Inhibition of 3-HAO in Sprague-Dawley rat brain homogenates using [1-14C]-3-HANA as substrate assessed as [14C]-QUIN production after 1 hr by liquid scintillation spectrometric analysis; type: tissue-based
T4 sequence (P46953 whole entry): T1 sequence (whole entry)

[11] = Chemical stability in PBS buffer assessed as auto-oxidative degradation after 24 hrs by HPLC analysis; type: physicochemical; settings: read-out: Drug degradation

| Compound | inhibition [1] [%] | inhibition [2] [%] | inhibition [3] [%] | inhibition [4] [%] | inhibition [5] [%] | inhibition [6] [%] | remaining at 24 h, 100 µM [7] [%] | remaining at 24 h, 10 µM [8] [%] | IC50 [9] [nM] | [3H]-QUIN formed (Rattus norvegicus) [%] | IC50 [10] [nM] | degraded at 24 h [11] [%] |
| --- | --- | --- | --- | --- | --- | --- | --- | --- | --- | --- | --- | --- |
| CC(C)c1cc(C(C)C)[n+]([O-])c(N)c1C(=O)O | 1.2 | 10.6 | 2.9 | -5.4 | 14.6 | 1.5 |  |  |  |  |  |  |
| CCc1cc(C)[n+]([O-])c(N)c1C(=O)O | 2.8 | 20 | 3.1 | 8.5 | 23 | 10.9 |  |  |  |  |  |  |
| Cc1cc(C(=O)O)c(N)[n+]([O-])c1C | 17.6 | 89.1 | 61.6 | 31.3 | 85.8 | 76.3 |  |  |  |  |  |  |
| Nc1c(C(=O)O)cc(Cl)c[n+]1[O-] | 9.1 | 85.9 | 42.6 | 24.8 | 74.4 | 68.6 |  |  |  |  |  |  |
| O=C(O)c1ccc(Cl)[n+]([O-])c1 | 2.9 | 30.4 | 11.4 | -5.4 | 37 | -3 |  |  |  |  |  |  |
| Nc1c(C(=O)O)ccc[n+]1[O-] | 47.6 | 94 | 84.9 | 74 | 92.4 | 88.8 | 103 | 101 |  |  |  |  |
| Cc1cc(C(=O)O)c(N)[n+]([O-])c1 | 8.7 | 80.1 | 30.7 | 16.3 | 67.6 | 52.6 |  |  |  |  |  |  |
| Cc1ccc(C(=O)O)c(N)[n+]1[O-] | 76.9 | 94.4 | 94.1 | 85.5 | 96 | 92.3 | 102 | 101 | 1100 | 0.9 | 2800 |  |
| Nc1c(C(=O)O)ccc(Cl)[n+]1[O-] | 67.3 | 95.2 | 84 | 72.9 | 95.2 | 89.6 |  |  |  |  |  |  |
| O=c1[nH]cnc2c1ccc[n+]2[O-] | 0.6 | 44.3 | 6.4 | 5.5 | 46.9 | 13 |  |  |  |  |  |  |
| Cc1cc(-c2ccccc2)c(C(=O)O)c(N)[n+]1[O-] | 2.4 | 7.4 | 5.5 | -2.8 | 14.8 | 4.1 |  |  |  |  |  |  |
| Nc1c(C(=O)O)ccc(Cl)c1O |  |  |  |  |  |  |  |  |  |  |  | 62 |
| Nc1c(C(=O)O)cc(Br)c[n+]1[O-] | 14.5 | 89.1 | 55.2 | 22.9 | 83.7 | 67.2 |  |  |  |  |  |  |
| Cc1cc(C)[n+]([O-])c(N)c1C(=O)O | -0.8 | 69.5 | 4.3 | 0.7 | 46.6 | 16.3 |  |  |  |  |  |  |
| Cc1ccc(C(=O)O)c(N)n1 | -2.1 | 24.8 | 5.1 | -3.6 | 42.5 | 0.7 |  |  |  |  |  |  |
| Cc1ccc(C#N)c(N)[n+]1[O-] | -2.4 | 5.6 | -0.6 | -2.9 | 2.4 | -0.5 |  |  |  |  |  |  |
| CCc1ccc(C(=O)O)c(N)[n+]1[O-] | 69.9 | 90.4 | 90.7 | 76.6 | 94.2 | 88.4 |  |  |  |  |  |  |
| Cc1cc(C(C)C)c(C(=O)O)c(N)[n+]1[O-] | 1.1 | 24.1 | 2.2 | 4 | 25.7 | 10.2 |  |  |  |  |  |  |
| Cc1ccc(C(N)=O)c(N)[n+]1[O-] | -1.1 | 20.1 | -2 | 1.7 | 11.5 | 1.3 |  |  |  |  |  |  |
| COC(=O)c1ccc(C)[n+]([O-])c1N | 1 | 6 | 1.2 | -7.9 | 9.3 | -5.8 |  |  |  |  |  |  |

Source: ChEMBL document CHEMBL3108765, “2-Aminonicotinic acid 1-oxides are chemically stable inhibitors of quinolinic acid synthesis in the mammalian brain: a step toward new antiexcitotoxic agents” (J Med Chem, 2013)
